Assay results from article PMC12856970 (Clinical Pharmacology in Drug Development, 2025).
“Also recorded” adds a separate entry of the source. Where two headings read alike, the source gives them in different places.

Experiments:
OATP1B3 = conditions: in vitro; cited from earlier work
OATP1B1 = conditions: in vitro; cited from earlier work
BCRP = conditions: in vitro; cited from earlier work
[1] = Phase 1 DDI study: asciminib plasma trough concentration (Ctrough); type: in vivo, human (healthy participants); conditions: asciminib 80 mg QD (i.e. on day 8)
[2] = Phase 1 DDI study: safety and tolerability (AEs, ECG); type: in vivo, human (healthy participants); conditions: asciminib 80 mg QD multiple doses alone or with atorvastatin 20 mg
OATP1B [3] = test system: OATP1B; set-up: method as in data on file; conditions: single asciminib dose of 200 mg; ref data on file; cited from earlier work
P‐gp = conditions: in vitro; cited from earlier work
[4] = cited from earlier work
OATP = test system: OATP; set-up: method as in PMID 27317801; conditions: after a single dose of rifampicin, healthy participants; cited from earlier work
OATP1B [5] = experiment: Phase 1 DDI study: plasma CP-1 AUC0-24 as endogenous biomarker of OATP1B, without or with steady-state asciminib; conditions: for AUC0‐24, Adjusted Gmean: linear mixed-effects model
[6] = Phase 1 DDI study: plasma PK of atorvastatin and its metabolites after atorvastatin alone or with steady-state asciminib (LC-MS/MS, non-compartmental); conditions: for AUCinf, Gmean (GCV%) / AUCinf, Mean (SD) / AUCinf, Median (min, max) / AUClast, Gmean (GCV%) / AUClast, Mean (SD) / AUClast, Median (min, max) / Cmax, Gmean (GCV%) / Cmax, Mean (SD) / Cmax, Median (min, max) / T1/2, Gmean (GCV%) / T1/2, Mean (SD) / T1/2, Median (min, max) / Tmax, Median (min, max): plasma; for AUCinf, Adjusted Gmean / AUClast, Adjusted Gmean / Cmax, Adjusted Gmean: linear mixed-effects model, back-transformed; for AUCinf Gmean ratio / AUClast Gmean ratio / Cmax Gmean ratio: atorvastatin + asciminib/atorvastatin; for Effect of asciminib on Cmax, AUClast and AUCinf (in words): atorvastatin + steady-state asciminib versus atorvastatin alone
[7] = set-up: method as in PMID 30580575; conditions: monotherapies; cited from earlier work
CYP3A4 [8] = conditions: midazolam with asciminib 200 mg BID; cited from earlier work
CYP3A4 [9] = conditions: midazolam single dose co-administered with asciminib 40 mg BID at steady state vs alone; cited from earlier work
[10] = steady state, 40 mg BID regimen
[11] = atorvastatin 20 mg single dose + asciminib 80 mg QD at steady state (day 9)
[12] = atorvastatin 20 mg single oral dose alone (day 1)
[13] = atorvastatin + asciminib 80 mg QD steady state
[14] = atorvastatin + asciminib at steady state

O=C(Nc1ccc(OC(F)(F)Cl)cc1)c1cnc(N2CC[C@@H](O)C2)c(-c2ccn[nH]2)c1 [asciminib, Asciminib]
Inhibition of OATP1B3 (in words) (OATP1B3): could inhibit; also recorded: can inhibit
Inhibition of OATP1B1 (in words) (OATP1B1): could inhibit; also recorded: can inhibit
Inhibition of BCRP (in words) (BCRP): could inhibit; also recorded: can inhibit
Time of dosing until steady state was attained [1]: 3 days
Tolerability (in words) [2]: well tolerated
DDI effect on CP‐1 (in words) (OATP1B [3]): no DDI effect
Inhibition of P‐gp (in words) (P‐gp): could inhibit; also recorded: can inhibit
Time of dosing to reach steady-state levels [4]: ≤ 3 days
AUC0‐12, Gmean [4, 10]: 5262 ng x h/mL
Cmax, Gmean [4, 10]: 793 ng/mL
Cmax, Gmean ([4]; steady state, 80 mg QD regimen): 1781 ng/mL

coproporphyrin‐1 [CP‐1]
Increase in Cmax (OATP): 5.7 fold
AUC0‐24 Gmean ratio (OATP1B [5]; atorvastatin + asciminib/atorvastatin): 1.02
Effect of asciminib on CP‐1 plasma concentrations (in words) (OATP1B [5]; steady-state asciminib 80 mg QD): not affected; also recorded: remained unaffected
AUC0‐24, Adjusted Gmean (OATP1B [5]; treatment 'Atorvastatin + asciminib' (steady-state asciminib)): 12,500 pg x h/mL
AUC0‐24, Adjusted Gmean (OATP1B [5]; treatment 'Atorvastatin' (without asciminib)): 12,300 pg x h/mL
AUC0‐24, Gmean (GCV%) (OATP1B [5]; with asciminib 80 mg QD, day 8, plasma): 12,600 pg x h/mL
AUC0‐24, Gmean (GCV%) (OATP1B [5]; without asciminib, day 4, plasma): 12,300 pg x h/mL

CC(C)c1c(C(=O)Nc2ccccc2O)c(-c2ccccc2)c(-c2ccc(F)cc2)n1CC[C@@H](O)C[C@@H](O)CC(=O)O [o‐Hydroxy‐atorvastatin, o‐hydroxy‐atorvastatin]
AUCinf, Gmean (GCV%) [6, 11]: 41.7 (34.9) ng x h/mL
AUCinf, Mean (SD) [6, 11]: 44.1 (15.5) ng x h/mL
AUCinf, Median (min, max) [6, 11]: 42.8 (23.6, 81.7) ng x h/mL
AUClast, Gmean (GCV%) [6, 11]: 39.2 (36.8) ng x h/mL
AUClast, Mean (SD) [6, 11]: 41.7 (15.4) ng x h/mL
AUClast, Median (min, max) [6, 11]: 40.1 (21.4, 79.2) ng x h/mL
Cmax, Gmean (GCV%) [6, 11]: 3.98 (45.4) ng/mL
Cmax, Mean (SD) [6, 11]: 4.27 (2.11) ng/mL
Cmax, Median (min, max) [6, 11]: 3.88 (1.56, 11.3) ng/mL
T1/2, Gmean (GCV%) [6, 11]: 11.7 (28.4) h
T1/2, Mean (SD) [6, 11]: 12.2 (3.43) h
T1/2, Median (min, max) [6, 11]: 12.2 (7.33, 21.2) h
Tmax, Median (min, max) [6, 11]: 1.50 (0.50, 6.00) h
AUCinf, Gmean (GCV%) [6, 12]: 41.2 (34.7) ng x h/mL
AUCinf, Mean (SD) [6, 12]: 43.4 (14.3) ng x h/mL
AUCinf, Median (min, max) [6, 12]: 44.1 (23.1, 77.7) ng x h/mL
AUClast, Gmean (GCV%) [6, 12]: 37.0 (42.2) ng x h/mL
AUClast, Mean (SD) [6, 12]: 39.8 (15.0) ng x h/mL
AUClast, Median (min, max) [6, 12]: 41.6 (15.2, 75.8) ng x h/mL
Cmax, Gmean (GCV%) [6, 12]: 3.66 (56.9) ng/mL
Cmax, Mean (SD) [6, 12]: 4.14 (1.98) ng/mL
Cmax, Median (min, max) [6, 12]: 4.04 (1.42, 8.11) ng/mL
T1/2, Gmean (GCV%) [6, 12]: 9.64 (28.0) h
T1/2, Mean (SD) [6, 12]: 10.0 (2.95) h
T1/2, Median (min, max) [6, 12]: 9.67 (5.12, 19.9) h
Tmax, Median (min, max) [6, 12]: 2.00 (0.50, 5.00) h
AUCinf, Adjusted Gmean [6, 13]: 41.7 ng x h/mL
AUClast, Adjusted Gmean [6, 13]: 39.4 ng x h/mL
Cmax, Adjusted Gmean [6, 13]: 3.95 ng/mL
Time post-dose at which mean Cmax was observed (mean concentration-time profile) [6, 14]: 2 h
AUCinf Gmean ratio [6]: 1.02
AUClast Gmean ratio [6]: 1.07
Cmax Gmean ratio [6]: 1.08
Effect of asciminib on Cmax, AUClast and AUCinf (in words) [6]: did not affect; also recorded: comparable between treatments; also recorded: negligible
Time post-dose at which mean Cmax was observed (mean concentration-time profile) ([6]; atorvastatin alone): 2 h
AUCinf, Adjusted Gmean ([6]; atorvastatin alone): 40.7 ng x h/mL
AUClast, Adjusted Gmean ([6]; atorvastatin alone): 37.0 ng x h/mL
Cmax, Adjusted Gmean ([6]; atorvastatin alone): 3.66 ng/mL

CC[C@H](C)C(=O)O[C@H]1C[C@H](O)C=C2C=C[C@H](C)[C@H](CC[C@@H](O)C[C@@H](O)CC(=O)O)[C@H]21 [pravastatin]
Rate of hospitalization due to rhabdomyolysis [7]: 0.44 per 10,000 patient‐years

CC(C)c1c(C(=O)Nc2ccc(O)cc2)c(-c2ccccc2)c(-c2ccc(F)cc2)n1CC[C@@H](O)C[C@@H](O)CC(=O)O [p‐Hydroxy‐atorvastatin, p‐hydroxy‐atorvastatin]
AUCinf, Gmean (GCV%) [6, 11]: 6.2 (95.2) ng x h/mL
AUCinf, Mean (SD) [6, 11]: 7.67 (4.91) ng x h/mL
AUCinf, Median (min, max) [6, 11]: 6.63 (1.50, 15.7) ng x h/mL
AUClast, Gmean (GCV%) [6, 11]: 2.9 (87.7) ng x h/mL
AUClast, Mean (SD) [6, 11]: 3.83 (3.28) ng x h/mL
AUClast, Median (min, max) [6, 11]: 2.99 (0.717, 13.6) ng x h/mL
Cmax, Gmean (GCV%) [6, 11]: 0.16 (48.0) ng/mL
Cmax, Mean (SD) [6, 11]: 0.171 (0.0880) ng/mL
Cmax, Median (min, max) [6, 11]: 0.145 (0.0699, 0.425) ng/mL
T1/2, Gmean (GCV%) [6, 11]: 22.8 (58.5) h
T1/2, Mean (SD) [6, 11]: 25.3 (10.9) h
T1/2, Median (min, max) [6, 11]: 26.0 (8.45, 40.9) h
Tmax, Median (min, max) [6, 11]: 10.00 (1.00, 12.00) h
Tmax, Median (min, max) ([6]; atorvastatin 20 mg single dose + asciminib 80 mg QD at steady state (day 9), listed as p‐hydroxy‐atorvastatin): approximately 10 h
AUCinf, Gmean (GCV%) [6, 12]: 7.4 (53.2) ng x h/mL
AUCinf, Mean (SD) [6, 12]: 8.16 (4.48) ng x h/mL
AUCinf, Median (min, max) [6, 12]: 6.60 (4.86, 14.6) ng x h/mL
AUClast, Gmean (GCV%) [6, 12]: 3.1 (69.8) ng x h/mL
AUClast, Mean (SD) [6, 12]: 3.73 (2.75) ng x h/mL
AUClast, Median (min, max) [6, 12]: 2.56 (0.964, 12.5) ng x h/mL
Cmax, Gmean (GCV%) [6, 12]: 0.17 (53.8) ng/mL
Cmax, Mean (SD) [6, 12]: 0.189 (0.112) ng/mL
Cmax, Median (min, max) [6, 12]: 0.144 (0.0793, 0.468) ng/mL
T1/2, Gmean (GCV%) [6, 12]: 30.4 (24.6) h
T1/2, Mean (SD) [6, 12]: 31.1 (7.50) h
T1/2, Median (min, max) [6, 12]: 30.4 (24.3, 39.3) h
Tmax, Median (min, max) [6, 12]: 10.00 (1.50, 12.01) h
Tmax, Median (min, max) ([6]; atorvastatin 20 mg single oral dose alone (day 1), listed as p‐hydroxy‐atorvastatin): approximately 10 h
AUCinf, Adjusted Gmean [6, 13]: 5.92 ng x h/mL
AUClast, Adjusted Gmean [6, 13]: 2.89 ng x h/mL
Cmax, Adjusted Gmean [6, 13]: 0.156 ng/mL
Time post-dose at which mean Cmax was observed (mean concentration-time profile) [6, 14]: 10 h
AUCinf Gmean ratio [6]: 0.74
AUClast Gmean ratio [6]: 0.98
Cmax Gmean ratio [6]: 0.98
Effect of asciminib on Cmax, AUClast and AUCinf (in words) [6]: did not affect; also recorded: negligible
Time post-dose at which mean Cmax was observed (mean concentration-time profile) ([6]; atorvastatin alone): 10 h
AUCinf, Adjusted Gmean ([6]; atorvastatin alone): 8.04 ng x h/mL
AUClast, Adjusted Gmean ([6]; atorvastatin alone): 2.96 ng x h/mL
Cmax, Adjusted Gmean ([6]; atorvastatin alone): 0.160 ng/mL

CC(C)c1c(C(=O)Nc2ccccc2)c(-c2ccccc2)c(-c2ccc(F)cc2)n1CC[C@@H](O)C[C@@H](O)CC(=O)O [Atorvastatin]
Rate of hospitalization due to rhabdomyolysis [7]: 0.44 per 10,000 patient‐years

Cc1ncc2n1-c1ccc(Cl)cc1C(c1ccccc1F)=NC2 [midazolam]
Increase in AUCinf (PBPK prediction) (CYP3A4 [8]): 88%
Increase in Cmax (PBPK prediction) (CYP3A4 [8]): 58%
Increase in AUCinf (CYP3A4 [9]): 28%
Increase in AUClast (CYP3A4 [9]): 27%
Increase in Cmax (CYP3A4 [9]): 11%
